Assay results published in US11484535B2, “Liquid formulations of (S)-N-(5-((R)-2-(2,5-difluorophenyl)-pyrrolidin-1-yl)-pyrazolo[1,5-a] pyrimidin-3-yl)-3-hydroxypyrrolidine-1-carboxamide” (Loxo Oncology, Inc., priority 2016, dated 2022).
Structures can show the parent of a compound that is named as a salt.

Columns and labels:
[1] = Accelerated stability study in an LDPE bag at 40° C./75% RH for five weeks; format: physicochemical
[2] = Dynamic vapor sorption (DVS) isotherm, hygroscopicity; format: physicochemical
Protocol: For the DVS measurement a sample of crystalline form (I-HS) was cycled through changing humidity conditions to determine its hygroscopicity. The sample was analyzed using a Surface Measurement System DVS-1 Dynamic Vapor Sorption System. […] Data was collected in 1 minute intervals. Nitrogen was used as the carrier gas. […] After completion of the sorption cycle, the sample was dried using the same procedure, but all the way down to 0% RH and finally taken back to the starting point of 20% RH. The weight change during the sorption/desorption cycles were plotted, allowing for the hygroscopic nature of the sample to be determined.
A small increase in mass of about 1.7% was observed between 0% and 90% RH during the sorption cycle.

[3] = test system: Infantile Fibrosarcoma with NTRK3-ETV6 Fusion; test: Phase 1 pediatric dose-escalation study (NCT02637687), oral liquid formulation of Compound I-HS, case of one patient

| SMILES | change in chemical impurity levels [1] | hygroscopicity by DVS ([2]; 20-90% RH ramp, 10% increments) | change in crystalline form during DVS (XRPD post vs pre DVS) ([2]; XRPD after DVS analysis) | reduction in the size and enhancement of the mass from baseline ([3]; MR of the brain and neck, end of cycle 1 (day 28), BID dosing, patient) | response on repeat scans ([3]; end of Cycle 2, MR of the brain and neck) | adverse events related to the compound ([3]; first two cycles (28-day cycles)) |
| --- | --- | --- | --- | --- | --- | --- |
| O=C(Nc1cnn2ccc(N3CCC[C@@H]3c3cc(F)ccc3F)nc12)N1CC[C@H](O)C1.O=S(=O)(O)O [AM(HS), (S)—N-(5-((R)-2-(2,5-difluorophenyl)-pyrrolidin-1-yl)-pyrazolo[1,5-a]pyrimidin-3-yl)-3-hydroxypyrrolidine-1-carboxamide hydrogen sulfate] | neither the AM(HS) or crystalline form (I-HS) exhibited a significant changes in chemical impurity levels | – | – | – | – | – |
| O=C(Nc1cnn2ccc(N3CCC[C@@H]3c3cc(F)ccc3F)nc12)N1CC[C@H](O)C1 [Compound I-HS, (S)—N-(5-((R)-2-(2,5-difluorophenyl)-pyrrolidin-1-yl)-pyrazolo[1,5-a]pyrimidin-3-yl)-3-hydroxypyrrolidine-1-carboxamide hydrogen sulfate] | neither the AM(HS) or crystalline form (I-HS) exhibited a significant changes in chemical impurity levels | non-hygroscopic | no change | more than 90% | partial response | no adverse events |
